Paper PMC4706877, “Antibacterial and Cytotoxic Activity of Compounds Isolated from Flourensia oolepis” (Evidence-based Complementary and Alternative Medicine : eCAM, 2015)
Converted amounts (≈) assume the structure as drawn. Where two headings read alike, the source gives them in different places.

Columns and labels:
[1] = tested on: Enterococcus faecalis (ATCC 29212); assay: Agar dilution MIC / MBC; type: cell-based; conditions: ATCC29212, E. faecalis
Procedure: (§1) This isolate was identified by conventional biochemical assays and by the commercial system API20E (bioMérieux SA, Mercy L'Etoile, France). Antimicrobial resistances were determined by disk diffusion susceptibility testing (Kirby-Bauer Method) according to CLSI [15]. Bacterial suspensions were prepared on sterile saline from each organism grown overnight. Turbidity was spectrophotometrically adjusted to the McFarland 0.5 standard. Dilutions were carried out with sterile saline to give an adjusted concentration of 1.5 × 10^7 colony-forming units/mL.
(§2) Three independent experiments were carried out. […] For reading, visual observations were carried out.

[2] = tested on: Escherichia coli (ATCC 25922); assay: Agar dilution MIC / MBC; type: cell-based; conditions: ATCC25922, E. coli
Procedure: as §1, §2

[3] = tested on: Pseudomonas aeruginosa (ATCC 27853); assay: Agar dilution MIC / MBC; type: cell-based; conditions: ATCC27853, P. aeruginosa
Procedure: as §1, §2

[4] = tested on: Staphylococcus aureus subsp. aureus (ATCC 6538); assay: Agar dilution MIC / MBC; type: cell-based; conditions: S. aureus; for MBC: value in parentheses
Procedure: as §1, §2

[5] = tested on: tetracycline, erythromycin, and polymyxin-resistant Proteus mirabilis (Pr2921); assay: Agar dilution MIC / MBC; type: cell-based; conditions: P. mirabilis
Procedure: as §1, §2

[6] = tested on: CCRF-CEM acute lymphoblastic leukemia cells; assay: MTT cell proliferation assay; type: cell-based, human; conditions: for IC50: CCRF-CEM, MTT, 72 h, read-out: IC50 values and 95% confidence limits (lower, upper)
Procedure: (§3) The HEK293T non-tumor derived cell line and human isolated mononuclear cells (PBMC) were also tested. […] Cells were cultured at 37°C in a 5% CO2 humidified environment.
(§4) To investigate the cytotoxic potential of the isolated compounds, the MTT colorimetric assay was performed. […] The compounds were evaluated at a final maximum concentration of 100 μM. After 72 hours, 20 μL of 5 mg/mL solution of MTT in sterile PBS was added to each well and further incubated for 4 h. Then, the supernatants were removed and replaced with 100 μL DMSO to solubilize the resulting purple formazan crystals produced from metabolically viable cells. Absorbance was measured with an iMark micro-plate reader (Bio-Rad, USA) at 595 nm. Two wells were used for each concentration of the products assayed and three independent experiments were performed. […] The percentage of cytotoxic activity of the assayed compounds was determined by the following formula: cytotoxicity (%) = [1 − (optical density of treated cells − optical density DMSO)/(optical density of ethanol control cells − optical density DMSO)] × 100.
(§5) Data were analyzed by one-way analysis of variance (ANOVA) and means were compared using Bonferroni's comparison test, with p ≤ 0.05 considered as statistically significant.

[7] = tested on: K562 chronic myeloid leukemia cells; assay: MTT cell proliferation assay; type: cell-based, human; conditions: for IC50: K562, MTT, 72 h, read-out: IC50 values and 95% confidence limits (lower, upper)
Procedure: as §3, §4, §5

[8] = tested on: CEM/ADR5000 cells (MDR, P-glycoprotein overexpressing); assay: cells; type: cell-based, human; conditions: for IC50: CEM/ADR5000, MTT, 72 h, read-out: IC50 values and 95% confidence limits (lower, upper)
Procedure: as §3
(§6) The latter concentration was then used for maintenance of the cells. Lucena 1 were continuously cultured in the presence of 60 nM DOX. Both cell lines were grown in drug-free medium 3-4 days before the experiments. Overexpression of P-glycoprotein (P-gp) in both MDR variants was verified by flow cytometry using FITC-labeled mouse anti-human P-gp (BD Pharmingen, USA). Cells were subcultured twice a week from frozen stocks and used before the 20th passage. All experiments were performed with cells in the logarithmic growth phase with cell viabilities over 90%, determined by trypan blue staining.
as §4, §5

[9] = tested on: Lucena 1 cells (MDR, P-glycoprotein overexpressing); assay: cells; type: cell-based, human; conditions: for IC50: Lucena 1, MTT, 72 h, read-out: IC50 values and 95% confidence limits (lower, upper)
Procedure: as §3, §6, §4, §5

[10] = tested on: ALL cells; assay: MTT assay, summary; type: cell-based; conditions: Homo sapiens, read-out: IC50, range
Excerpt: (§7) CCRF-CEM acute lymphoblastic leukemia (ALL) and K562 chronic myeloid leukemia (CML) cells and their MDR P-glycoprotein overexpressing variants, CEM/ADR5000 and Lucena 1, respectively, were a generous gift from Dr. T. Efferth (Institute of Pharmacy and Biochemistry, Johannes Gutenberg University, Mainz, Germany) and Dr. V. Rumjanek (Instituto de Bioquímica Médica Leopoldo de Meis, Universidade Federal do Rio de Janeiro, Rio de Janeiro, Brazil), respectively. The HEK293T non-tumor derived cell line and human isolated mononuclear cells (PBMC) were also tested. […]
(§8) To investigate the cytotoxic potential of the isolated compounds, the MTT colorimetric assay was performed. […] The compounds were evaluated at a final maximum concentration of 100 μM. […] Absorbance was measured with an iMark micro-plate reader (Bio-Rad, USA) at 595 nm. […] The percentage of cytotoxic activity of the assayed compounds was determined by the following formula: cytotoxicity (%) = [1 − (optical density of treated cells − optical density DMSO)/(optical density of ethanol control cells − optical density DMSO)] × 100.

[11] = tested on: CML cells; assay: MTT assay, summary; type: cell-based; conditions: Homo sapiens, read-out: IC50, range
Excerpt: as §7, §8

O=C(/C=C/c1ccccc1)c1ccc(O)cc1O [Compound 1, 2′,4′-dihydroxychalcone]
MIC ([1]; agar dilution, 24 h): 62 µg/mL (≈ 258 µM) | MBC ([1]; value in parentheses): 125 µg/mL (≈ 520 µM) | MIC ([2]; agar dilution, 24 h): 250 µg/mL (≈ 1040 µM) | MBC ([2]; value in parentheses): 500 µg/mL (≈ 2080 µM) | MIC ([3]; agar dilution, 24 h): 250 µg/mL (≈ 1040 µM) | MBC ([3]; value in parentheses): > 500 µg/mL | MBC [4]: 31 (31) μg/mL | MIC ([4]; Staphylococcus aureus, ATCC6538, agar dilution, 24 h): 31 µg/mL (≈ 129 µM) | MBC ([4]; Staphylococcus aureus, ATCC6538, read-out: MBC): 31 µg/mL (≈ 129 µM) | MIC ([5]; agar dilution, 24 h): 62 µg/mL (≈ 258 µM) | MBC ([5]; value in parentheses): 125 µg/mL (≈ 520 µM) | IC50 [6]: 6.6 µM | IC50 ([6]; Homo sapiens): < 10 µM | selectivity index (SI) ([6]; IC50 HEK293T / IC50 CCRF-CEM): 10.1 | selectivity index (SI) ([6]; IC50 PBMC / IC50 CCRF-CEM): 12.5 | IC50 ([7]; Homo sapiens, K562, 72 h): < 30 µM | selectivity index (SI) ([7]; IC50 PBMC / IC50 K562): 3.0 | IC50 [7]: 27.5 µM | IC50 [8]: 9.9 µM | resistant index (RI) = IC50 resistant cells/IC50 sensitive cells ([8]; CEM/ADR5000 vs CCRF-CEM): 1.5 | IC50 ([8]; Homo sapiens, ADR5000, 72 h): < 10 µM | selectivity index (IC50 ratio) ([8]; IC50 HEK293T / IC50 CEM/ADR5000): 6.8 | selectivity index (IC50 ratio) ([8]; IC50 PBMC / IC50 CEM/ADR5000): 8.4 | IC50 ([9]; Homo sapiens, Lucena 1, 72 h): < 30 µM | IC50 [9]: 30 µM | resistant index (RI) = IC50 resistant cells/IC50 sensitive cells ([9]; Lucena 1 vs K562): 1.1 | IC50 [10]: 6.6 to 9.9 µM | IC50 [11]: 27.5 to 30 µM
